# According to patent US20160237450A1, “METHOD FOR ENHANCING DROUGHT TOLERANCE IN PLANTS” (Plant Response Biotech S.L., priority 2015, published 2016):
# Columns and labels:
# Format in all cases: in vivo
# [1] = test system: tomato plants ('Moneymaker'); experiment: Tomato stem size under limited water irrigation
# Method: (§1) For each drought or limited water experiment 480 seeds (of either pepper, barley, tomato, cucumber or corn) were sown, producing 384 plants in 512 cm^3 pots (4 plants per pot). Plants were grown under chamber conditions at 21° C. for 3 weeks. Then, the plants were moved to a greenhouse, where average temperature was 25° C. to 28° C. Spray and irrigation treatments as described herein were done when the plants had two extended leaves and the next pair of leaves were coming up.
# (§2) Treatments: Twelve pots (containing 48 plants) were irrigated with 40 ml of either: water, 0.1 g/L TMAO di-hydrate solution, 1.0 g/L TMAO di-hydrate solution, or 5.5 g/L TMAO di-hydrate solution. Another set of 12 pots containing 48 plants were sprayed with 40 ml of either water (3.3 ml in average per pot), a solution containing 0.1 g/L TMAO di-hydrate solution, 1.0 g/L TMAO di-hydrate, or 5 g/L, or 10 g/L TMAO di-hydrate. Further sets of 12 pots containing 48 plants were both sprayed with each initial solution TMAO di-hydrate solution and further irrigated with the same TMAO di-hydrate solutions used in the control water sprayed plants. All pots were also watered with 40 ml of water. The sprayed plants were watered with the same volume of water as the “irrigated plants). The pots were located on plastic glass to maintain constant moisture and to avoid liquid spillage during watering. Trays containing the pots were located on greenhouse tables. The distribution of the trays on the table and the position on the pots in the tray was changed every week to avoid position effects.
# After the treatments described above, for the “limited water” experiments plants were watered with 20 ml of water or solution instead of 40 ml when the first plants started to wilt. The stem length was recorded as analyzed for the limited water experiments in which the plants are watered with 50-30% of the water that the plant requires.
# TMAO di-hydrate applied exogenously which increases the endogenous content of TMAO as if the plants were overexpressing an FMO protein at least 4 times increases plant stem size in tomato under limited water irrigation. ‘Moneymaker’ tomato seeds were sown, grown and treated as described.
# [2] = test system: pepper plants ('Murano'); experiment: Pepper plant survival under extreme drought
# Method: as §1, §2
# After the treatments described above, the plants were not watered until the pots completely lost their moisture, taking about 4 to 8 days depending on the season, at which point the plants were extremely wilted for the extreme drought experiments. The plants were then watered once with solutions containing the different amounts of TMAO di-hydrate (0.1 g/L, 1.0 g/L, 5 g/L, or 10 g/L) or just water, after which the plants were left to lose their moisture completely again for three consecutive cycles of watering after wilting. For the “extreme drought” experiments plants were allowed to wilt severely before watering and then the plant survival rate was recorded and analyzed.
# TMAO di-hydrate applied exogenously, which increases the endogenous content of TMAO as if the plants were overexpressing an FMO protein at least 4 times increases plant survival in pepper plants under extreme drought conditions. ‘Murano’ pepper seeds were sown, grown and treated as described above.
# [3] = test system: Arabidopsis thaliana plants (Col-0); experiment: Drought fitness of wild type Arabidopsis sprayed with TMAO di-hydrate; details: Col-0 sprayed 1 g/L after first wilting cycle, scale 0 dead to 4 healthy
# Method: Transgenic FMO3X and FMO8X genotypes and wild type Col-0 seeds of Arabidopsis thaliana were sown, grown and treated as described above. For the control group of both wild-type and transgenic plants, six week old plants were irrigated with 40 ml of water twice in the week, while “drought” treated plants of both wild-type and transgenic plants were not irrigated until all the plants were wilted.
# After the first cycle of wilting wild type plants were sprayed with 1 g/L TMAO di-hydrate to determine if the wilted wild type plants could recover and perform as well as the transgenic plants in the following cycles of wilting. Fitness values were assigned using the following criteria: 0: Dead plant; 1: Critically damaged plant symptoms; 2: Moderate damaged plant symptoms; 3: Slightly damaged plant symptoms; and 4: Healthy plant.
# [4] = test system: corn plants ('FAO700'); experiment: Corn grains per cob under limited water; details: 30% water
# Method: In order to determine the drought or drought stress tolerance after seed treatments with TMAO di-hydrate and germination in the presence of TMAO di-hydrate, barley “Hispanic” seeds, corn “FAO700” seeds, and “Sambro” sunflower seeds were surface sterilized for 3 minutes in ethanol 70%, then rinsed twice and finally included in a pre-treatment solution of 1 g/L TMAO di-hydrate solution (or just water) under shaking for 3 hours at a dose of 1 litre per Kg of seeds. Then, the seeds were sown in randomized plots of 10 sqm in a surface of 2.000 sqm. Chlorophyll content was measured 1 month before harvest. In corn irrigation was applied in half of the plots while the other half only received an initial establishment watering. The barley plots received 200 l of rain per m^2 through the growing season. Some of the plots received a second spray treatment with 1 g/liter of TMAO. […] At least 3 independent plants were treated per experiment.
# TMAO di-hydrate applied exogenously which increases the endogenous content of TMAO as if the plants were overexpressing an FMO protein at least 4 times increases plant production in corn under limited water irrigation. ‘FAO700’ corn seeds were sown, grown and treated as described above. Spray treatments with 1 g/L TMAO di-hydrate increased plant grain production.
# [5] = test system: lettuce plants (Iceberg); experiment: Yield production without drought stress, lettuce; details: 1 g/l spray every 4 weeks for 3 months, no drought stress
# Method: In order to determine the plant yield productivity under normal conditions, ‘Sabrina’, ‘Candonga’ and ‘Fortuna’ strawberry varieties, leek, lettuce, “Iceberg” variety, broccoli “Parthenon” variety, celery or kohlrabi plants, were grown under standard production conditions and 120 plants of each variety per treatment (where the treatment was a control comprising standard watering or 1 g/L of TMAO di-hydrate spray every four weeks) were analyzed. Plants were located in four (4) different positions for each group of 30 plants from the same treatment. Fruits, leaves or roots were harvested from individual plants and total weight was determined for each plant.
# Root or leaves yield was determined in the plants treated with 1 g/l of TMAO di-hydrate or water as described above in order to evaluate the trade-off costs of the treatment with no drought stress.
structure (smiles),measurement,setting,value
"C[N+](C)(C)[O-].O.O [TMAO di-hydrate, trimethylamine N-oxide di-hydrate]",AVERAGE STEM SIZE (cm),"[1]; initial treatment 0.1 g/L, irrigations 1 g/L",12.32 ± 0.56 cm
same,AVERAGE STEM SIZE (cm),"[1]; initial treatment 0.1 g/L, irrigations water",11.06 ± 0.55 cm
same,AVERAGE STEM SIZE (cm),"[1]; initial treatment 1 g/L, irrigations 1 g/L",13.77 ± 0.55 cm
same,AVERAGE STEM SIZE (cm),"[1]; initial treatment 1 g/L, irrigations water",11.59 ± 0.55 cm
same,AVERAGE STEM SIZE (cm),"[1]; initial treatment 5 g/L, irrigations 1 g/L",14.6 ± 0.55 cm
same,AVERAGE STEM SIZE (cm),"[1]; initial treatment 5 g/L, irrigations water",14.2 ± 0.56 cm
same,AVERAGE STEM SIZE (cm),"[1]; initial treatment water, irrigations 1 g/L",12.97 ± 0.55 cm
same,SURVIVAL RATE (%),"[2]; irrigation 0.1 g/L, initial spray 0.1 g/L",33.3 ± 8.3%
same,SURVIVAL RATE (%),"[2]; irrigation 0.1 g/L, initial spray 1 g/L",54.1 ± 8.3%
same,SURVIVAL RATE (%),"[2]; irrigation 0.1 g/L, initial spray 10 g/L",83.3 ± 8.3%
same,SURVIVAL RATE (%),"[2]; irrigation 0.1 g/L, initial spray water",29.1 ± 8.3%
same,SURVIVAL RATE (%),"[2]; irrigation 1 g/L, initial spray 0.1 g/L",33.3 ± 7.7%
same,SURVIVAL RATE (%),"[2]; irrigation 1 g/L, initial spray 1 g/L",33.3 ± 7.7%
same,SURVIVAL RATE (%),"[2]; irrigation 1 g/L, initial spray 10 g/L",37.5 ± 7.7%
same,SURVIVAL RATE (%),"[2]; irrigation 1 g/L, initial spray water",0.0 ± 7.7%
same,SURVIVAL RATE (%),"[2]; irrigation 5 g/L, initial spray 0.1 g/L",100 ± 3.8%
same,SURVIVAL RATE (%),"[2]; irrigation 5 g/L, initial spray 1 g/L",100 ± 3.8%
same,SURVIVAL RATE (%),"[2]; irrigation 5 g/L, initial spray 10 g/L",87.5 ± 3.8%
same,SURVIVAL RATE (%),"[2]; irrigation 5 g/L, initial spray water",95.8 ± 3.8%
same,SURVIVAL RATE (%),"[2]; irrigation all regimes, initial spray 0.1 g/L",51.0 ± 3.6%
same,SURVIVAL RATE (%),"[2]; irrigation all regimes, initial spray 1 g/L",62.5 ± 3.6%
same,SURVIVAL RATE (%),"[2]; irrigation all regimes, initial spray 10 g/L",71.8 ± 3.6%
same,SURVIVAL RATE (%),"[2]; irrigation water, initial spray 0.1 g/L",37.5 ± 8.1%
same,SURVIVAL RATE (%),"[2]; irrigation water, initial spray 1 g/L",62.5 ± 8.1%
same,SURVIVAL RATE (%),"[2]; irrigation water, initial spray 10 g/L",79.1 ± 8.1%
same,Mean Fitness Value ± S.E.,[3],1.83 ± 0.21
same,AVERAGE NUMBER OF GRAINS PER COB,[4]; 1 g/L seed treatment,542.89 ± 41.22
same,AVERAGE NUMBER OF GRAINS PER COB,[4]; 1 g/L spray,511.34 ± 19.70
same,increase in total number of grains per corn cob compared to 100% water irrigation,"[4]; 1 g/L, row 4",2%
same,"Yield production, % Control",[5],112%
